Measured values reported in PMC3082957 (ACS chemical neuroscience, 2011).

Assays:
Format in all cases: cell-based
[1] = system: voltage-gated Na+ channels in CAD cells
[2] = system: voltage-gated Na+ channels in CAD cells; conditions: for fraction of channels in a slow-inactivated state (1 minus the normalized INa): at −50 mV
[3] = system: voltage-gated Na+ channels in CAD cells; conditions: 100 µM
[4] = system: voltage-gated Na+ channels in CAD cells; remark: listed apart in the source
[5] = system: voltage-gated Na+ channels in CAD cells; assay: Frequency; conditions: 100 µM; 30 pulses at 10 Hz, holding −80 mV
[6] = system: voltage-gated Na+ channels in CAD cells; assay: Rate of development of inhibition/slow inactivation of Na+ currents in CAD cells; conditions: 100 µM; vehicle 0.51 ± 0.08
[7] = 30 µM, UV irradiation, then washed 5 min

Row | Structure (SMILES) | block of Na+ current [1] | fraction of channels in a slow-inactivated state (1 minus the normalized INa) ([2]; 100 µM) | IC50 for slow inactivation, fold lower compared with (R)-1 ([2]; CAD cells, versus IC50 85 µM of (R)-1) | slope (k) of fast inactivation curve, shallower than DMSO-treated cells ([3]; p<0.05) | Na+ channels remaining in a slow-inactivated state [4, 7] | recovery of current amplitude at −10 mV compared with DMSO control or UV alone [4, 7] | Na+ channels accumulated in the slow-inactivated state ([4]; 30 µM, photoactivated 365 nm 8 min then 312 nm 1 min) | Na+ channels in the slow-inactivated state ([4]; 30 µM, without light) | changes in steady-state activation or fast inactivation ([4]; pre-drug, drug, UV and washout conditions, (R)-5 40 µM, (R)-6 40 µM, (R)-7 30 µM) | reduction of peak inward Na+ current ([1]; 100 µM, CAD cells held at −80 mV, versus 0.1% DMSO) | slow inactivation observed at potentials more depolarized than ([2]; 100 µM) | fraction of Na+ current available at −50 mV ([2]; 100 µM, 5 s conditioning prepulse) | maximal fraction of current unavailable by depolarization ([2]; 100 µM, 20 mV as printed, control 0.62 ± 0.03) | V1/2 of steady-state fast inactivation ([3]; DMSO control −67.5 ± 1.0 mV, not different (p > 0.05)) | peak current lower than control by the last pulse [5] | fraction of current available at 8 s prepulse duration [6] | recovery of current amplitude at −10 mV after wash compared with pre-drug values ([4]; 100 µM, 10 min, 5-min wash) | effect on slow inactivation following the 5-min wash ([4]; 100 µM, 10 min at 37 °C, then 5-min wash, −50 mV)
1 | NC1=N[C@H](O)[C@H]2[C@H]3O[C@]4(O)O[C@@H]([C@@H](O)[C@@]2(N1)[C@@H]4O)[C@]3(O)CO [tetrodotoxin] | almost all of the current was blocked |  |  |  |  |  |  |  |  |  |  |  |  |  |  |  |  | 
2 | COC[C@@H](NC(C)=O)C(=O)NCc1ccc(C2(C(F)(F)F)N=N2)cc1 [(R)-7] |  | 0.66 ± 0.05 | 7.1 fold | about 55% | about 10% | 87% | about 35% | 65% | no changes |  |  |  |  |  |  |  |  | 
3 | COC[C@@H](NC(C)=O)C(=O)NCc1ccccc1 [(R)-1, (R)-N-benzyl 2-acetamido-3-methoxypropionamide] |  | 0.65 ± 0.08 |  |  |  |  |  |  |  | 40% | > −80 mV | 0.35 ± 0.01 fractional units | 0.26 ± 0.01 | −69.5 ± 1.3 mV | ~ 10% | 0.31 ± 0.01 | 74% | completely reversed
